Numbered stars: 1 amine (or outer) side, 2 acyl side, 3 side chain; on linkers, the order of the positions; unused ones are H or OH. Bridge positions count the residues as written; N and C are the ends. Square brackets hold non-standard residues; d marks the D form. Side chains are listed from the residue outwards. Peptide text beside a SMILES is read from it. * marks the point of attachment. C20 diacid = O=C(O)CCCCCCCCCCCCCCCCCCC(=O)*; C18 diacid = O=C(O)CCCCCCCCCCCCCCCCC(=O)*; γGlu = O=C(O)[C@H](CCC(=O)[*:2])N[*:1]; Hyp = O=C(O)[C@@H]1C[C@@H](O)CN1; AEEA = NCCOCCOCC(=O)O
How the values were obtained:
[1] = biological target: T1, human amylin receptor (Homo sapiens, UniProt O60896+P30988); assay: Luciferase assay of amylin derivatives in amylin receptor/CRE-luc CHO cell line; assay type: cell-based; settings: CHO-K1/Ga15/AMY3 CRE-luc cells, 24 hours incubation, F12 medium containing 10% FBS; read-out: EC50
T1 construct: host or cells: CHO-K1/Ga15/AMY3 cells, further stably transfected with a CRE-luciferase plasmid
T1 sequence (P30988 25-474): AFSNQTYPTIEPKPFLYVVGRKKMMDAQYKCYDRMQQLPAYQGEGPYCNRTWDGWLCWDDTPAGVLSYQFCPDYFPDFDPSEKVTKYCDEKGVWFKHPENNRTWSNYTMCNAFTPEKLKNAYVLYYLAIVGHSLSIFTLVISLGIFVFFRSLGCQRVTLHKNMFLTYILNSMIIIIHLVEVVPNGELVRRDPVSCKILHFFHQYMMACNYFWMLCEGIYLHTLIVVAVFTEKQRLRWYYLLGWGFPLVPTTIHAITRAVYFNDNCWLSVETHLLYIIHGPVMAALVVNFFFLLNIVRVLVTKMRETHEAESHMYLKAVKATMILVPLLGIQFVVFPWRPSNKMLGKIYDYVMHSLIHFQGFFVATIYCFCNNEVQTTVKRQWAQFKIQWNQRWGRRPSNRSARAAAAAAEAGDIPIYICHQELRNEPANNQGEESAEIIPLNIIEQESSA
T1 sequence (O60896 24-148 partner): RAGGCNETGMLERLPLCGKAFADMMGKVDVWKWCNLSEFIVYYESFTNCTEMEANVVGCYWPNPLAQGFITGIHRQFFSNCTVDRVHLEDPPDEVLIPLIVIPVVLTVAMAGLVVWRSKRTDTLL
Experimental: The experiment was intended to detect the activity or efficacy of the amylin derivatives on a human amylin receptor in vitro by luciferase assay.
50 μL of growth medium (F12 medium containing 10% FBS) was added into each well of a white 96-well plate, and the stably transfected amylin/CRE-lue CHO cells were inoculated into the white 96-well plate at a density of about 20,000 cells/well for activity determination.

[2] = Freeze-thaw stability of derivatives (freeze-thaw yield by liquid chromatography); assay type: physicochemical; settings: for Dissolution property: appearance after dissolution at 0.2 mg/ml in 20 mM phosphate buffer solution (PB) (pH 7.0); for Freeze storage property: appearance after overnight storage at −20° C. and thawing to room temperature, 0.2 mg/ml in 20 mM PB (pH 7.0)
Experimental: The freeze-dried powder of the polypeptide analog derivative prepared in Example 1 was mixed with a buffer solution according to a mass-volume ratio of 0.2 mg/ml, the polypeptide was dissolved with 20 mM phosphate buffer solution (PB) (pH 7.0), the sample was stored at −20° C. for overnight storage, and then the sample was taken out to be restored to room temperature for thawing. During the experiment, property changes of the polypeptide after dissolution and freezing and thawing were observed and recorded respectively, and concentrations of the polypeptide before and after the freezing and thawing were detected by the following liquid chromatography method: Materials and equipment: high-performance liquid chromatographic instrument (Agilent 1200), ultrapure water (18.2 MΩ self-manufactured ultrapure water), acetonitrile (HPLC grade), and trifluoroacetic acid (HPLC grade); and reversed-phase chromatographic column: […] A sample to be tested was centrifuged at 10,000 rpm and 4° C. for 3 minutes, and a supernatant was taken and added into a liquid-phase sample injection bottle. […] A freeze-thaw yield was calculated by the following formula: freeze-thaw yield=concentration of polypeptide after the freezing and thawing/concentration of polypeptide before the freezing and thawing.

SMILES	EC50 [1]	Dissolution property [2]	Freeze storage property [2]	Freeze storage yield ([2]; concentration of polypeptide after freezing and thawing / concentration before, by liquid chromatography, −20° C. overnight)
CC[C@H](C)[C@H](NC(=O)[C@@H]1CCCN1C(=O)[C@H](CCCCNC(=O)CC[C@H](NC(=O)CCCCCCCCCCCCCCCCCCC(=O)O)C(=O)O)NC(=O)[C@H](CC(C)C)NC(=O)[C@H](CC(N)=O)NC(=O)[C@H](CC(N)=O)NC(=O)[C@H](CO)NC(=O)[C@H](CO)NC(=O)[C@H](Cc1c[nH]cn1)NC(=O)[C@H](CCCNC(=N)N)NC(=O)[C@H](CC(C)C)NC(=O)[C@H](Cc1ccccc1)NC(=O)[C@H](CCC(=O)O)NC(=O)[C@H](C)NC(=O)[C@H](CC(C)C)NC(=O)[C@H](CCCNC(=N)N)NC(=O)[C@H](CCC(N)=O)NC(=O)[C@@H](NC(=O)[C@H](C)NC(=O)[C@@H]1CSSC[C@H](NC(=O)[C@@H](N)CCCNC(=N)N)C(=O)N[C@@H](CC(N)=O)C(=O)N[C@@H]([C@@H](C)O)C(=O)N[C@@H](C)C(=O)N[C@@H]([C@@H](C)O)C(=O)N1)[C@@H](C)O)C(=O)N[C@@H](CC(C)C)C(=O)N1CCC[C@H]1C(=O)N1CCC[C@H]1C(=O)N[C@H](C(=O)N[C@@H](CC(N)=O)C(=O)N[C@H](C(=O)NCC(=O)N[C@@H](CO)C(=O)N[C@@H](CC(N)=O)C(=O)N[C@H](C(=O)N1CCC[C@H]1C(N)=O)[C@@H](C)O)C(C)C)[C@@H](C)O [PD009] (H-RCNTATCATQRLAEFLRHSSNNLK([γGlu-C20 diacid])PILPPTNVGSNTP-NH2; disulfide 2-7 (inferred))	67 pM	Clear	Clear	
CC[C@H](C)[C@H](NC(=O)[C@@H]1CCCN1C(=O)[C@H](CCCCNC(=O)CC[C@H](NC(=O)CCCCCCCCCCCCCCCCCCC(=O)O)C(=O)O)NC(=O)[C@H](CC(C)C)NC(=O)[C@H](CC(N)=O)NC(=O)[C@H](CC(N)=O)NC(=O)[C@H](CO)NC(=O)[C@H](CO)NC(=O)[C@H](Cc1c[nH]cn1)NC(=O)[C@H](CCCNC(=N)N)NC(=O)[C@H](CC(C)C)NC(=O)[C@H](Cc1ccccc1)NC(=O)[C@H](CCC(=O)O)NC(=O)[C@H](C)NC(=O)[C@H](CC(C)C)NC(=O)[C@H](CCCNC(=N)N)NC(=O)[C@H](CCC(N)=O)NC(=O)[C@@H](NC(=O)[C@H](C)NC(=O)[C@@H]1CSSC[C@H](N)C(=O)N[C@@H](CC(N)=O)C(=O)N[C@@H]([C@@H](C)O)C(=O)N[C@@H](C)C(=O)N[C@@H]([C@@H](C)O)C(=O)N1)[C@@H](C)O)C(=O)N[C@@H](CC(C)C)C(=O)N1CCC[C@H]1C(=O)N1CCC[C@H]1C(=O)N[C@H](C(=O)N[C@@H](CC(N)=O)C(=O)N[C@H](C(=O)NCC(=O)N[C@@H](CO)C(=O)N[C@@H](CC(N)=O)C(=O)N[C@H](C(=O)N1CCC[C@H]1C(N)=O)[C@@H](C)O)C(C)C)[C@@H](C)O [PD049] (H-CNTATCATQRLAEFLRHSSNNLK([γGlu-C20 diacid])PILPPTNVGSNTP-NH2; disulfide 1-6 (inferred); N-terminus assumed)	215 pM	Clear	Clear	99.00%
CC[C@H](C)[C@H](NC(=O)[C@@H]1CCCN1C(=O)CNC(=O)[C@H](CCCCNC(=O)CC[C@H](NC(=O)CCCCCCCCCCCCCCCCCCC(=O)O)C(=O)O)NC(=O)[C@H](CC(N)=O)NC(=O)[C@H](CC(N)=O)NC(=O)[C@H](CO)NC(=O)[C@H](CO)NC(=O)[C@H](Cc1c[nH]cn1)NC(=O)[C@H](CCCNC(=N)N)NC(=O)[C@H](CC(C)C)NC(=O)[C@H](Cc1ccccc1)NC(=O)[C@H](CCC(=O)O)NC(=O)[C@H](C)NC(=O)[C@H](CC(C)C)NC(=O)[C@H](CCCNC(=N)N)NC(=O)[C@H](CCC(N)=O)NC(=O)[C@@H](NC(=O)[C@H](C)NC(=O)[C@@H]1CSSC[C@H](NC(=O)[C@@H](N)CCCNC(=N)N)C(=O)N[C@@H](CC(N)=O)C(=O)N[C@@H]([C@@H](C)O)C(=O)N[C@@H](C)C(=O)N[C@@H]([C@@H](C)O)C(=O)N1)[C@@H](C)O)C(=O)N[C@@H](CC(C)C)C(=O)N1CCC[C@H]1C(=O)N1CCC[C@H]1C(=O)N[C@H](C(=O)N[C@@H](CC(N)=O)C(=O)N[C@H](C(=O)NCC(=O)N[C@@H](CO)C(=O)N[C@@H](CC(N)=O)C(=O)N[C@H](C(=O)N1CCC[C@H]1C(N)=O)[C@@H](C)O)C(C)C)[C@@H](C)O [PD008] (H-RCNTATCATQRLAEFLRHSSNNK([γGlu-C20 diacid])GPILPPTNVGSNTP-NH2; disulfide 2-7 (inferred))	281 pM	Clear	Clear	
CC[C@H](C)[C@H](NC(=O)[C@@H]1CCCN1C(=O)CNC(=O)[C@H](CC(C)C)NC(=O)[C@H](CC(N)=O)NC(=O)[C@H](CCCCNC(=O)CC[C@H](NC(=O)CCCCCCCCCCCCCCCCCCC(=O)O)C(=O)O)NC(=O)[C@H](CO)NC(=O)[C@H](CO)NC(=O)[C@H](Cc1c[nH]cn1)NC(=O)[C@H](CCCNC(=N)N)NC(=O)[C@H](CC(C)C)NC(=O)[C@H](Cc1ccccc1)NC(=O)[C@H](CCC(=O)O)NC(=O)[C@H](C)NC(=O)[C@H](CC(C)C)NC(=O)[C@H](CCCNC(=N)N)NC(=O)[C@H](CCC(N)=O)NC(=O)[C@@H](NC(=O)[C@H](C)NC(=O)[C@@H]1CSSC[C@H](NC(=O)[C@@H](N)CCCNC(=N)N)C(=O)N[C@@H](CC(N)=O)C(=O)N[C@@H]([C@@H](C)O)C(=O)N[C@@H](C)C(=O)N[C@@H]([C@@H](C)O)C(=O)N1)[C@@H](C)O)C(=O)N[C@@H](CC(C)C)C(=O)N1CCC[C@H]1C(=O)N1CCC[C@H]1C(=O)N[C@H](C(=O)N[C@@H](CC(N)=O)C(=O)N[C@H](C(=O)NCC(=O)N[C@@H](CO)C(=O)N[C@@H](CC(N)=O)C(=O)N[C@H](C(=O)N1CCC[C@H]1C(N)=O)[C@@H](C)O)C(C)C)[C@@H](C)O [PD006] (H-RCNTATCATQRLAEFLRHSSK([γGlu-C20 diacid])NLGPILPPTNVGSNTP-NH2; disulfide 2-7 (inferred); N-terminus assumed)	129 pM	Clear	Clear	
CC[C@H](C)[C@H](NC(=O)[C@@H]1CCCN1C(=O)CNC(=O)[C@H](CC(C)C)NC(=O)[C@H](CC(N)=O)NC(=O)[C@H](CC(N)=O)NC(=O)[C@H](CCCCNC(=O)COCCOCCNC(=O)CC[C@H](NC(=O)CCCCCCCCCCCCCCCCCCC(=O)O)C(=O)O)NC(=O)[C@H](CO)NC(=O)[C@H](Cc1c[nH]cn1)NC(=O)[C@H](CCCNC(=N)N)NC(=O)[C@H](CC(C)C)NC(=O)[C@H](Cc1ccccc1)NC(=O)[C@H](CC(=O)O)NC(=O)[C@H](C)NC(=O)[C@H](CC(C)C)NC(=O)[C@H](CCCNC(=N)N)NC(=O)[C@H](CCC(N)=O)NC(=O)[C@@H](NC(=O)[C@H](C)NC(=O)[C@@H]1CSSC[C@H](NC(=O)[C@@H](N)CCCNC(=N)N)C(=O)N[C@@H](CC(N)=O)C(=O)N[C@@H]([C@@H](C)O)C(=O)N[C@@H](C)C(=O)N[C@@H]([C@@H](C)O)C(=O)N1)[C@@H](C)O)C(=O)N[C@@H](CC(C)C)C(=O)N1CCC[C@H]1C(=O)N1CCC[C@H]1C(=O)N[C@H](C(=O)N[C@@H](CC(N)=O)C(=O)N[C@H](C(=O)NCC(=O)N[C@@H](CO)C(=O)N[C@@H](CC(N)=O)C(=O)N[C@H](C(=O)N1C[C@H](O)C[C@H]1C(N)=O)[C@@H](C)O)C(C)C)[C@@H](C)O [PD116] (H-RCNTATCATQRLADFLRHSK([AEEA-γGlu-C20 diacid])NNLGPILPPTNVGSNT[Hyp]-NH2; disulfide 2-7)	33 pM			
CC[C@H](C)[C@H](NC(=O)[C@H](CCCCNC(=O)CC[C@H](NC(=O)CCCCCCCCCCCCCCCCC(=O)O)C(=O)O)NC(=O)CNC(=O)[C@H](CC(C)C)NC(=O)[C@H](CC(N)=O)NC(=O)[C@H](CC(N)=O)NC(=O)[C@H](CO)NC(=O)[C@H](CO)NC(=O)[C@H](Cc1c[nH]cn1)NC(=O)[C@H](CCCNC(=N)N)NC(=O)[C@H](CC(C)C)NC(=O)[C@H](Cc1ccccc1)NC(=O)[C@H](CC(=O)O)NC(=O)[C@H](C)NC(=O)[C@H](CC(C)C)NC(=O)[C@H](CCCNC(=N)N)NC(=O)[C@H](CCC(N)=O)NC(=O)[C@@H](NC(=O)[C@H](C)NC(=O)[C@@H]1CSSC[C@H](NC(=O)[C@@H](N)CCCNC(=N)N)C(=O)N[C@@H](CC(N)=O)C(=O)N[C@@H]([C@@H](C)O)C(=O)N[C@@H](C)C(=O)N[C@@H]([C@@H](C)O)C(=O)N1)[C@@H](C)O)C(=O)N[C@@H](CC(C)C)C(=O)N1CCC[C@H]1C(=O)N1CCC[C@H]1C(=O)N[C@H](C(=O)N[C@@H](CC(N)=O)C(=O)N[C@H](C(=O)NCC(=O)N[C@@H](CO)C(=O)N[C@@H](CC(N)=O)C(=O)N[C@H](C(=O)N1C[C@H](O)C[C@H]1C(N)=O)[C@@H](C)O)C(C)C)[C@@H](C)O [PD104] (H-RCNTATCATQRLADFLRHSSNNLGK([γGlu-C18 diacid])ILPPTNVGSNT[Hyp]-NH2; disulfide 2-7)	11 pM			

Source: patent publication US20260166128A1, “HUMAN AMYLIN ANALOG, AND DERIVATIVE THEREOF AND USE THEREOF” (priority 2022, published 2026)
